Columns and labels:
[1] = test system: protease that cleaves full length cathelicidin; details: cited from earlier work
[2] = test system: erythematotelangiectatic rosacea subjects; assay: Topical 4% cromolyn sodium vs placebo in erythematotelangiectatic rosacea subjects, clinical evaluation and tape strips; type: in vivo, human
Procedure: (a, b) NHEK cells were co-cultured with 100 μl of supernatant of human cord blood-derived MCs after degranulation by 48/80, or serine buffer. (a) After 24 hrs of co-culture, NHEK cells were washed well and MMP and KLK activities in the cells were obtained, and (b) For the comparison of Cath LL-37 mRNA expression in NHEK cells, 100 nM of 1,25(OH)2VD3 was added to same co-culture. (c) 10 erythematotelangiectatic rosacea subjects were randomized to apply a solution containing either the MC stabilizer (4% cromolyn sodium) (n=5) or placebo (n=5) topically. Tape strips were obtained at the first visit (v1) and last visit (v4) and proteases and protein were separately extracted. Statistics: t-test ***p<0.001 (n=3), *p<0.05 (n=5).
2 mm skin biopsies were taken from the faces of healthy and rosacea subjects, as well as tape strips from the face of erythematotelangiectatic rosacea subjects in the dermatology clinic at the University of California, San Diego. All the procedures involving human subjects were approved by the University of California San Diego Institutional Review Board under the IRB number 071032. Ten randomized adults with erythematotelangiectatic rosacea were applied a water-based solution containing either 4% cromolyn sodium or placebo, topically to their face twice a day, for 8 weeks. A clinical evaluation was performed at each visit. A total six tape strips were obtained from right and left cheek at each of the first visit and the final visit.
To test whether the results were reproducible in humans, 10 randomized adults with erythematotelangiectatic rosacea were used to apply a solution containing either the MC stabilizer (4% cromolyn sodium) or placebo, topically to their face twice daily. Six tape strips were obtained from both right and left cheeks, at the time of first visit (v1) and last visit (v4). After eight week (v4), facial erythema levels decreased in the cromolyn treatment group. MMP, KLK activity and Cath LL-37 protein levels were decreased in the cromolyn treatment group with significant activity in MMP observed (FIG. 5c).

WT mice = assay: MC stabilizer experiment: cromolyn sodium I.P. pretreatment before Cath LL-37 challenge (rosacea mouse model); type: in vivo
Procedure: WT mice were injected I.P. with vehicle or cromolyn sodium (10 mg/kg, per day) for 4 days. 24 hours after the last injection, the mice were injected intradermally with 50 μl of […] Cath LL-37 or PBS, twice a day for 2 days. Skin biopsies were taken after 72 hours of observation and (a) Mmp-9 and Cxcl2 mRNA expressions were assessed by RT-PCR, (b) MMP-9 activity was assessed by measuring cleavage of a MMP fluorogenic substrate with specific inhibitors, and (c) immunohistochemistry was performed on frozen skin sections using antibodies against MMP-9 and FcεRI. DAPI stain was also used, as indicated. Statistics: one-way and two-way ANOVA **p<0.01 (n=3).
Mast cell deficient (C57BL/6-KitWsh^−/−) mice were bred. KitWsh^−/− mice bearing the W-sash (Wsh) inversion mutation have MC deficiency, but lack anemia and sterility. […] Wild type mice (C57BL/6) were utilized as control. Mice were shaved 24 hrs before intradermal injection with 50 μl of 50 μM or 320 μM of Cath LL-37 or filtered PBS (n=3), twice a day for 2 days and skin biopsies were taken after 72 hours of observation. Total RNA was extracted and purified by RNeasy Mini Kit (QIAGEN science). For the time course observation, skin biopsies of WT and MC deficient mice were taken at 1, 4, and 24 hrs after Cath LL-37 injection.
For the MC stabilizer experiment: Cromolyn sodium (0.3 mg/mouse/day) (Sigma-Aldrich, St Louis, MO) in PBS was injected I.P. into WT mice for 4 days.
Total-MMP activities were determined by following previously reported study (Kanada et al., 2012). To determine MMP-9 activity, MMP-9 specific inhibitor I (Thermo Fisher Scientific, Chicago, IL) was used.
cDNA was synthesized from RNA using the iScript cDNA Synthesis Kit (BioRad, Hercules, CA) according to the manufacturer's protocol. cDNA was normalized using a NanoDrop spectrophotometer (Thermo Fisher Scientific Inc.). Probes from TagMan Gene Expression Assays (Applied Biosystems ABI, Foster City, CA) were used to analyze gene expressions with following to the manufacturer's instructions. Gapdh mRNA was used as an internal control to validate RNA for each sample. mRNA expression was calculated as the relative expression to Gapdh mRNA, and all data are presented as fold change of each control.
Fluorescence immunohistochemistry. Mouse skin frozen sections were fixed with acetone, washed in 1×PBS, blocked with 5% goat serum/1% BSA for 30 minutes, and incubated with anti-MMP-9 polyclonal antibody (ABBIOTEC, San Diego, CA). For FcERI detection, anti-mouse FcERI PE (eBioscience, San Diego, CA) was used. Images were obtained using a Zeiss LSM510 laser scanning confocal microscope coupled with an Axiovert 100 inverted stage microscope.
According to the obtained results, MC proteases and MMP-9, which are released from MCs upon stimulation by Cath LL-37, are central in promoting rosacea-like skin inflammation. […] To test this hypothesis, cromolyn sodium, a very well-known MC stabilizer, was injected I.P. into WT mice (10 mg/kg, per day) every day for 4 days before Cath LL-37 challenge. 24 hours after the last cromolyn sodium injection, mice were injected with 50 μl of […] Cath LL-37 or PBS, twice a day for 2 days. […] In addition, frozen skin sections were stained with anti-MMP-9 and anti-FIERI antibodies for the detection of MCs.

[3] = 4% cromolyn sodium topically twice daily, v1 vs v4
[4] = cromolyn pretreated, Cath LL-37 challenged WT mice, biopsies after 72 hours, p<0.01

Molecule | inhibition of the enzyme in vitro [1] | facial erythema levels ([2]; 4% cromolyn sodium solution topically to face twice daily, after eight week (v4), n=5) | Cath LL-37 protein levels (tape strips) [2, 3] | KLK activity (tape strips) [2, 3] | MMP activity (tape strips) ([2]; 4% cromolyn sodium topically twice daily, v1 vs v4, significant, p<0.05 (n=5)) | mast cell (MC) degranulation (WT mice; FIG. 4 legend, cromolyn sodium 10 mg/kg per day I.P. for 4 days, WT mice) | MMP-9 activity in the tissue (WT mice; cromolyn pretreated, Cath LL-37 challenged WT mice, MMP fluorogenic substrate with specific inhibitors, p<0.01) | Cxcl2 mRNA expression in skin (RT-PCR) (WT mice; [4]) | Mmp-9 mRNA expression in skin (RT-PCR) (WT mice; [4]) | skin inflammation (WT mice; cromolyn sodium I.P. 10 mg/kg per day for 4 days, then 50 μl of 320 μm Cath LL-37 intradermally twice a day for 2 days, WT mice)
aprotinin | can inhibit this enzyme in vitro | – | – | – | – | – | – | – | – | –
O=C(O)c1cc(=O)c2c(OCC(O)COc3cccc4oc(C(=O)O)cc(=O)c34)cccc2o1 [cromolyn, cromolyn sodium] | – | decreased | decreased | decreased | decreased | prevents mast cell (MC) degranulation | dramatically decreased | significantly decreased | significantly decreased | did not develop
NCCc1ccc(S(=O)(=O)F)cc1 [AEBSF, 4-(2-aminoethyl)-benzenesulfonylfluoride] | can inhibit this enzyme in vitro | – | – | – | – | – | – | – | – | –

From patent US12285404B2, “Prevention of rosacea inflammation” (The Regents of the University of California, priority 2013, dated 2025)
